Measurements as given in ChEMBL document CHEMBL4400552, “Design, synthesis and biological evaluation of novel human monoamine oxidase B inhibitors based on a fragment in an X-ray crystal structure” (Bioorg Med Chem Lett, 2019).

What was measured:
[1] = target: T1, Amine oxidase [flavin-containing] B (Homo sapiens, UniProt P27338); assay: Inhibition of human recombinant MAO-B expressed in insect cells at 1 uM using p-tyramine as substrate preincubated for 30 mins followed by substrate addition measured for 15 mins by resorufin dye-based fluorescence assay relative to control; conditions: 0.25 h; for inhibition at 1 µM: read-out: INH; for INH: 1 µM
T1 sequence (P27338 whole entry): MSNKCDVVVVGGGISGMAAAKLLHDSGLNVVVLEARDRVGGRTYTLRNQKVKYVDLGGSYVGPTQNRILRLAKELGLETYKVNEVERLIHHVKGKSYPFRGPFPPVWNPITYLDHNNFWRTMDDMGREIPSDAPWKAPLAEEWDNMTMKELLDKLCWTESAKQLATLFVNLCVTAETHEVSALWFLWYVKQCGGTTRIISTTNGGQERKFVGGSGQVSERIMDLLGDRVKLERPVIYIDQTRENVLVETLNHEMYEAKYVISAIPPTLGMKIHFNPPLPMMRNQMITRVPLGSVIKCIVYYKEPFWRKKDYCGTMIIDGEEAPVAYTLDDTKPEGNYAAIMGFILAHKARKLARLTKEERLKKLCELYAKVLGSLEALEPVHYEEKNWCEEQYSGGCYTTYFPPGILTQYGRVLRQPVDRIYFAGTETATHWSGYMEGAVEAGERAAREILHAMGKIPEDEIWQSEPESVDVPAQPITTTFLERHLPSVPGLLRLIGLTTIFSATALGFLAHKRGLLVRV

[2] = species on record: Homo sapiens; assay: Selectivity index, ratio of IC50 for human recombinant MAO-A expressed in insect cells to IC50 for human recombinant MAO-B expressed in insect cells
[3] = target: T2, Amine oxidase [flavin-containing] A (Homo sapiens, UniProt P21397); assay: Inhibition of human recombinant MAO-A expressed in insect cells using p-tyramine as substrate preincubated for 30 mins followed by substrate addition measured for 15 mins by resorufin dye-based fluorescence assay
T2 sequence (P21397 whole entry): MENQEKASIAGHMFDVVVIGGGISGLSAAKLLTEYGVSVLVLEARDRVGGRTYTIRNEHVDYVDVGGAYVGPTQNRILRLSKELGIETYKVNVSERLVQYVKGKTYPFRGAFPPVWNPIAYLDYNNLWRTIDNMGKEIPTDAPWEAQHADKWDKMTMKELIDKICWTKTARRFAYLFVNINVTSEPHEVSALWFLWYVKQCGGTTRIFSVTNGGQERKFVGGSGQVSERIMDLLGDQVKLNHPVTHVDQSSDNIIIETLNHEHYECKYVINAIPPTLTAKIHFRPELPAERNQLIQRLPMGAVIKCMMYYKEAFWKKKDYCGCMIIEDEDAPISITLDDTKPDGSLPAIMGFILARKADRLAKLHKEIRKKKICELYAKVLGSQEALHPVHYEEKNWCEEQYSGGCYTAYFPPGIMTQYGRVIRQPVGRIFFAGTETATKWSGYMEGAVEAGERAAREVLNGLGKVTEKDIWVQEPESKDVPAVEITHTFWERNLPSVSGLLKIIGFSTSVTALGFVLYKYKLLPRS

[4] = target: T1, Amine oxidase [flavin-containing] B; assay: Inhibition of human recombinant MAO-B expressed in insect cells using p-tyramine as substrate preincubated for 30 mins followed by substrate addition measured for 15 mins by resorufin dye-based fluorescence assay; type: cell-based

inhibition at 1 µM [1]	IC50 [3]	IC50 [4]	INH [1]	SMILES	Ratio IC50 [2]
13.7%	–	–	–	Cn1c(=O)[nH]c2ccc(OCCc3cccc(Cl)c3)cc21	–
4.56%	–	–	–	CCn1c(=O)[nH]c2ccc(OCCCc3ccccc3)cc21	–
12.5%	–	–	–	CCn1c(=O)[nH]c2ccc(OCc3cccc(C(F)(F)F)c3)cc21	–
13.9%	–	–	–	CCn1c(=O)[nH]c2ccc(OCCOc3ccc(OC)cc3)cc21	–
–	–	–	Not Active	CC(C)=C1C(=O)Nc2ccc(OCCc3ccccc3)cc21	–
12.9%	–	–	–	CC(C)n1c(=O)[nH]c2ccc(OCCOc3cccc(F)c3)cc21	–
8.29%	> 500 µM	56.4 µM	–	Cn1c(=O)[nH]c2ccc(OCc3ccc(Cl)cc3)cc21	> 8.87
32.4%	> 500 µM	7.68 µM	–	Cn1c(=O)[nH]c2ccc(OCc3ccc(Cl)c(Cl)c3)cc21	> 65
19%	> 500 µM	278 µM	–	CCn1c(=O)[nH]c2ccc(OCCOc3ccc(C(C)C)cc3)cc21	> 1.8
12.7%	> 500 µM	397 µM	–	CC(C)C1C(=O)Nc2ccc(OCc3cccc(F)c3)cc21 (configuration not stated)	> 1.62
19.9%	–	–	–	Cn1c(=O)[nH]c2ccc(OCCc3ccc(Cl)cc3)cc21	–
95.7%	117 µM	0.003 µM	–	O=C1Nc2ccc(OCc3ccc(Cl)c(Cl)c3)cc2C1=O	38900
–	–	–	Not Active	CC1(C)C(=O)Nc2ccc(OCCc3ccccc3)cc21	–
–	–	–	Not Active	CC(C)=C1C(=O)Nc2ccc(OCc3ccc(F)cc3)cc21	–
–	–	–	Not Active	Cn1c(=O)[nH]c2ccc(OCc3ccccc3)cc21	–
9.94%	–	–	–	Cn1c(=O)[nH]c2ccc(OCCOc3ccc(Cl)cc3)cc21	–

Further lines, the compound ahead of its results:

SMILES	inhibition at 1 µM [1]	IC50 [3]	IC50 [4]	INH [1]	Ratio IC50 [2]
Cn1c(=O)[nH]c2ccc(OCc3cccc(Cl)c3)cc21	8.89%	–	–	–	–
CC(C)c1ccc(OCCOc2ccc3[nH]c(=O)n(C(C)C)c3c2)cc1	14.1%	> 500 µM	66.7 µM	–	> 7.49
Cn1c(=O)[nH]c2cc(OCc3cccc(Cl)c3)ccc21	23.4%	> 500 µM	34.3 µM	–	> 14.6
CC(C)n1c(=O)[nH]c2ccc(OCCOc3ccc(Cl)cc3)cc21	18.2%	–	–	–	–
O=C1Nc2ccc(OCCc3ccc(F)cc3)cc2C1=O	68.7%	> 500 µM	0.102 µM	–	> 4900
Cn1c(=O)[nH]c2ccc(OCCc3ccccc3)cc21	–	–	–	Not Active	–
O=C1Nc2ccc(OCc3ccc(F)cc3)cc2C1=O	92.5%	235 µM	0.073 µM	–	3210
CC1(C)C(=O)Nc2ccc(OCc3ccc(F)cc3)cc21	–	–	–	Not Active	–
Cc1ccc(COc2ccc3c(c2)C(C(C)C)C(=O)N3)cc1 (configuration not stated)	–	–	–	Not Active	–
O=C1Cc2cc(OCc3ccc(Cl)c(Cl)c3)ccc2N1	12.4%	> 500 µM	17.2 µM	–	> 29.1
Cn1c(=O)[nH]c2cc(OCCc3ccccc3)ccc21	–	–	–	Not Active	–
CC1(C)C(=O)Nc2ccc(OCc3cccc(Cl)c3)cc21	21.1%	> 500 µM	279 µM	–	> 1.79
Cn1c(=O)[nH]c2ccc(OCCCc3ccccc3)cc21	14%	> 500 µM	59.6 µM	–	> 8.39
O=C1Nc2ccc(OCc3cccc(Cl)c3)cc2C1=O	93%	311 µM	0.046 µM	–	6760
CC1(C)C(=O)Nc2ccc(OCc3ccc(Cl)c(Cl)c3)cc21	28.8%	> 500 µM	132 µM	–	> 3.78
CC(C)=C1C(=O)Nc2ccc(OCc3cccc(F)c3)cc21	–	–	–	Not Active	–

SMILES	inhibition at 1 µM [1]	IC50 [3]	IC50 [4]	INH [1]	Ratio IC50 [2]
Cn1c(=O)[nH]c2cc(OCc3ccccc3)ccc21	–	–	–	Not Active	–
O=C1Cc2cc(OCCc3ccc(F)cc3)ccc2N1	18.1%	> 500 µM	190 µM	–	> 2.63
Cc1ccc(COc2ccc3c(c2)C(C)(C)C(=O)N3)cc1	–	–	–	Not Active	–
Cc1ccc(COc2ccc3c(c2)C(C)C(=O)N3)cc1 (racemic)	–	–	–	Not Active	–
COc1ccc(OCCOc2ccc3[nH]c(=O)n(C(C)C)c3c2)cc1	15.5%	–	–	–	–
Cn1c(=O)[nH]c2ccc(OCc3cccc(F)c3)cc21	5.36%	–	–	–	–
CC(C)=C1C(=O)Nc2ccc(OCc3cccc(C)c3)cc21	–	–	–	Not Active	–
CCn1c(=O)[nH]c2ccc(OCCOc3ccc(Cl)cc3)cc21	7.24%	–	–	–	–
CCn1c(=O)[nH]c2ccc(OCCOc3cccc(F)c3)cc21	30.3%	> 500 µM	190 µM	–	> 2.62
O=C1Cc2cc(OCc3ccc(F)cc3)ccc2N1	19.6%	> 500 µM	24.9 µM	–	> 20.1
CCn1c(=O)[nH]c2ccc(OCCCOc3ccccc3)cc21	11.3%	–	–	–	–
COc1ccc(OCCOc2ccc3c(c2)C(=C(C)C)C(=O)N3)cc1	–	–	–	Not Active	–
CC(C)=C1C(=O)Nc2ccc(OCCOc3ccccc3)cc21	–	–	–	Not Active	–
CCn1c(=O)[nH]c2ccc(OCc3ccc(C(F)(F)F)cc3)cc21	22.8%	> 500 µM	184 µM	–	> 2.71
CC1(C)C(=O)Nc2ccc(OCCOc3ccccc3)cc21	–	–	–	Not Active	–
Cn1c(=O)[nH]c2cc(OCCCc3ccccc3)ccc21	–	–	–	Not Active	–
